The test system of assay [1] is rats subjected to ischemic/reperfusion injury by middle cerebral artery (MCA) occlusion. The experiment in a line: Transmission electron microscopy of brain tissue, ischemic penumbra, after MCA occlusion (Example 3). Format: in vivo, Sprague-Dawley rats. To be noted: for number of vessels per field (patent microvessels): 120 min MCA occlusion, 4 hrs reperfusion, 0.2 mg/kg bolus intraperitoneal at onset of reperfusion, 1200x fields, n=4, FIG. 5. The procedure: Sprague-Dawley rats underwent 120 minutes MCA occlusion, followed by 4 hrs of reperfusion. Rats were treated with either TAT or δV1-1-TAT peptides at the onset of reperfusion by bolus intraperitoneal injection (0.2 mg/kg in 1 mL, n=4 per group). […] Following the reperfusion period, rats were heavily anesthetized using isoflurane, and underwent transcardial perfusion using 0.7% NaCl/PBS followed by 4% formaldehyde in 0.7% NaCl/PBS.
Brains were removed and kept at 4° C. overnight in 2% formaldehyde/2% glutaraldehyde in 0.1M sodium cacodylate buffer, pH 7.3, Brain sections (˜1 mm^3) were then dissected from the cortical surface, at ˜1 mm anterior/˜6 mm lateral to bregma on the ipsilateral cortex (corresponding to the area measured by laser Doppler flowmetry). Tissue was post-fixed in 1% osmium tetroxide for 1 hr, washed with water, and stained in 1% uranyl acetate solution. Tissue was dehydrated using an ethanol gradient followed by 100% propylene oxide, and infiltrated with Epon and Embed 812 medium, placed in molds, and polymerized overnight at 65° C. before slicing. Sections (75 and 90 nm) were picked up on formvar/Carbon coated Cu grids, stained for 15 seconds in 1:1 Super-saturated uranyl acetate (7.7%) in acetone followed by staining in 0.2% lead citrate for 3 to 4 minutes (all reagents from Electron Microscopy Sciences, PA).
To quantitate number of patent vessels, 10-15 non-overlapping fields (1200× magnification) were photographed from 2-3 slices taken from each animal. Vessels were identified and counted if lumen and endothelial lining was apparent; vessels were confirmed by scanning over these fields at higher magnification. Assessments of vessel count were performed by an observer blinded to treatment group. The number of vessels per field was then averaged for each group of animals (n=4 per group). Statistical differences between groups were analyzed using an unpaired t-test. Higher magnification images (5000-15000×) were taken to assess microvascular morphology.

Assay [2] shares this test system. The experiment in a line: Cerebral blood flow by laser Doppler flowmetry after single intraperitoneal bolus (Example 1). Format: in vivo, Sprague-Dawley rats. To be noted: bolus intraperitoneal delivery. The text has this:
Male Sprague-Dawley rats (280-320g; n=8) were used for cerebral ischemia and reperfusion, and subsequent monitoring of cerebral blood flow. Tat or δV1-1 peptides were synthesized and conjugated via a Cys S—S bond as described previously (Chen, et al., Proc. Natl. Acad. Sci. USA 25(20):11114-11119 (2001); Inagaki, et al., Circulation 11(108):2304-2307 (2003)). Rats were sacrificed by overdose of isoflurane immediately following procedure
(§1) Ischemia and reperfusion were induced in male Sprague-Dawley rats using an occluding intraluminal suture as described in Maier, et al., J. Neurosurg. 94(1):90-96 (2001). Briefly, an uncoated 30 mm long segment of 3-0 nylon monofilament suture with the tip rounded by a flame was inserted into the stump of the external carotid artery and advanced into the internal carotid artery 19-20 mm from the bifurcation to occlude the ostium of the middle cerebral artery (MCA). Following placement of the suture, the wound was closed and animals were placed back in cages for a period of two hours. Following this period, animals were reanestheized and the suture was withdrawn to allow reperfusion of the brain.
Immediately following reperfusion, the rats were placed in a stereotaxic frame, and a burr hole was drilled through the skull 1 mm posterior and 6 mm lateral to the bregma on the ipsilateral hemisphere corresponding to the ischemic territory. Cerebral blood flow (CBF) was measured via this burr hole using a laser Doppler probe controlled by a micromanipulator (Laserflo BPM403A laser-Doppler flowmeter, Vasamedic, St. Paul, Minn.). The display is digital only, collects eight data points per second, and was set to give a moving average of data every 0.1 sec. (Perez-Pinzon, et al., J. Neurolog. Sci. 153 (1):25-31 (1997); Borlongan, et al., Brain Res. 1010(1-2):108-116 (2004)). CBF readings began at 30 minutes from the onset of reperfusion. Following a period of 20-30 minutes to establish baseline CBF, a δPKC inhibitor, the δV1-1 peptide (which was conjugated to Tat for delivery), was injected by intraperitoneal bolus, and blood flow was monitored for an additional 20-30 minutes.

Assay [3] concerns rats subjected to ischemic/reperfusion injury. The experiment in a line: Cerebral blood flow after repeated intraperitoneal administrations (Example 2). Format: in vivo.
Text: as §1
Immediately following reperfusion, the rats were placed in a stereotaxic frame, and a burr hole was drilled through the skull 1 mm posterior and 6 mm lateral to the bregma on the ipsilateral hemisphere corresponding to the ischemic territory. Cerebral blood flow (CBF) was measured via this burr hole using a laser Doppler probe controlled by a micromanipulator (Laserflo BPM403A laser-Doppler flowmeter, Vasamedic, St. Paul, Minn.). The display is digital only, collects eight data points per second, and was set to give a moving average of data every 0.1 sec. […] CBF readings began at 30 minutes from the onset of reperfusion. […]

Where [4] appears, read: rats subjected to ischemic/reperfusion injury (2 h MCA occlusion), within 30 minutes, FIG. 2.
Where [5] appears, read: sham (non-stroked) rats, within 30 minutes of delivery, FIG. 1.

Consider SFNSYELGSL [δV1-1-TAT], for which the “number of vessels per field (patent microvessels)” value in assay [1] was 3.1±0.6 vessels/field. Moreover, in assay [1] (ischemic animals, 0.2 mg/kg at reperfusion only, FIGS. 4F, 4I, 4L), the “microvascular structure (higher magnification TEM)” value is reported as “significantly less damaged”. Besides, the “cerebral blood flow (CBF)” value is listed as “increased cerebral blood flow” in assay [2] (setting [4]); “no change in blood flow” in assay [2] (setting [5]); “further increased blood flow” in assay [3] (ischemic/reperfusion rats, repeated intraperitoneal administrations, FIG. 3). In addition, the “desensitization to the inhibitor” value in assay [3] (ischemic/reperfusion rats treated multiple times) is “did not become desensitized”.

In the case of YGRKKRRQRRR [TAT, reference compound], the “number of vessels per field (patent microvessels)” value in assay [1] is 1.6±0.6 vessels/field. The “cerebral blood flow (CBF)” value in assay [2] (setting [4]) and in assay [2] (setting [5]) was “no effect on CBF” throughout.

The values are drawn from patent US8492348B2, “Methods of increasing cerebral blood flow” (The Board of Trustees of the Leland Stanford Junior …, priority 2005, dated 2013).
